Results taken from patent publication US9657018B2, “Antagonists acting at multiple prostaglandin receptors for the treatment of inflammation” (Allergan, Inc., priority 2014, dated 2017).
Where a name gives a salt, the structure may show the parent alone.

These compounds were tested against T1, human prostanoid TP receptor (Homo sapiens, UniProt P21731) (assay: FLIPR Ca2+ signaling antagonist assay, TP receptor stable cell line). Conditions: human recombinant TP in HEK-293 EBNA cells; standard agonist U-46619; NA = no antagonism or Kb>=10,000 nM.
T1 construct: expressed in transfected cells
T1 sequence (P21731 1-343): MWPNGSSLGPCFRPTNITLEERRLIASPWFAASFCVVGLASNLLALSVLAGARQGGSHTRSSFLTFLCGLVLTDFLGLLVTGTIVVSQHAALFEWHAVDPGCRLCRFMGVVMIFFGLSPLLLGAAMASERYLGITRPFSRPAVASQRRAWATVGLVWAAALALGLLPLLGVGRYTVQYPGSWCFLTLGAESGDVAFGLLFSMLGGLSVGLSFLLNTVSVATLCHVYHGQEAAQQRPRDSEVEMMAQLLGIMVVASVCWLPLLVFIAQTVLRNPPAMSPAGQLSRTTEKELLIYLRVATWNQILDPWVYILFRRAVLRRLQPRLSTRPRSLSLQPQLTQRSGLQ
Assay type: cell-based
Set-up: key to FLIPR data TP (Kb): PAg = partial agonist; Ag = agonist; NA = not active
Procedure: The above compounds were tested for PG antagonist activity as follows using human recombinant prostanoid receptor (DP1, EP1-4, FP, IP and TP) stable cell lines:
In order to measure the response of Gs and Gi coupled prostanoid receptors as a Ca^2+ signal, chimeric G protein cDNAs were used. Stable cell lines over-expressing human prostanoid DP1, EP1-4, FP, IP, and TP receptors were established as follows:
Briefly, human prostanoid DP1, EP2, and EP4 receptor cDNAs were co-transfected with chimeric Gqs cDNA containing a haemagglutanin (HA) epitope; human prostanoid EP3 receptors were co-transfected with chimeric Gqi-HA; human EP1, FP, IP, and TP receptor cDNAs were expressed with no exogenous G-proteins. Gqs and Gqi chimeric cDNAs (Molecular Devices, Sunnyvale, Calif., U.S.A.), as well as cDNAs of prostanoid receptors, were cloned into a pCEP4 vector with a hygromycin B selection marker. Transfection into HEK-293 EBNA (Epstein-Barr virus nuclear antigen) cells was achieved by the FuGENE 6 transfection Reagent (Roche Applied Science, Indianapolis, Ind., USA). Stable transfectants were selected according to hygromycin resistance. Because Gqs and Gqi contained an HA epitope, G-protein expression was detected by Western blotting analysis using anti-mouse HA monoclonal antibody and horseradish peroxidase (HRP)-conjugated secondary antibody, while functional expression of prostanoid receptors was detected by FLIPR screening (Matias et al., 2004). These stable cell lines were validated using previously published antagonists at 10 μM against serial dilutions of standard agonists by FLIPR functional assays for Ca^2+ Signaling (as described below).
Ca^2+ signaling studies were performed using a FLIPR TETRA system (Molecular Devices, Sunnyvale, Calif., USA) in the 384-format. This is a high-throughput instrument for cell-based assays to monitor Ca^2+ signaling associated with GPCRs and ion channels. Cells were seeded at a density of 5×10^4 cells/well in BioCoat poly-D-lysine coated, black wall, clear bottom 384-well plates (BD Biosciences, Franklin lakes, NJ, USA) and allowed to attach overnight in an incubator at 37° C. The cells were then washed twice with HBSS-HEPES buffer (Hanks' balanced salt solution without bicarbonate and phenol red, 20 mM HEPES, pH 7.4) using an ELx405 Select CW Microplate Washer (BioTek, Winooski, Vt., USA). After 60 min of dye-loading in the dark using the Ca^2+-sensitive dye Fluo-4AM (Invitrogen, Carlsbad, Calif., USA), at a final concentration of 2×10^−6M, the plates were washed 4 times with HBSS-HEPES buffer to remove excess dye and leaving 50 μl of buffer in each well. The plates were then placed in the FLIPR TETRA instrument and allowed to equilibrate at 37° C. AGN-211377 was added in a 25 μl volume to each well to give final concentrations of 0.1 μl. M, 0.4M, 1 μM, 3 μl. M, 10 μl. M, and 30 μl. M; or 0.067 μM, 0.4M, 0.67 μM, and 1 μM for cells over-expressing TP receptors. After 4.5 minutes, a 7-point serial dilution of the standard agonist for the corresponding receptor, in a 25 μl volume was injected at the final concentrations from 10^−11M to 10^−5M in 10-fold serial dilution increments for cells expressing human recombinant DP1, EP1, EP2, EP3, EP4, FP, and IP receptors. The dose range for the standard agonist for human recombinant TP receptors was from 10^−12M to 10^−6M. HBSS-HEPES buffer was used as the negative control for the standard agonists. Cells were excited with LED (light emitting diode) excitation at 470-495 nm and emission was measured through an emission filter at 515-575 nm. Assay plates were read for 3.5 minutes using the FLIPR^TETRA. The peak increase in fluorescence intensity was recorded for each well. On each plate, negative controls, dose response of positive controls, and co-treatments of antagonist-agonist for each dose were in triplicates. Standard agonists were as follows: DP=BW 245C, EP1-EP4=PGE2, FP=17-phenyl-PGF2a, IP=Cicaprost, and TP=U-46619. […]
With `CC(C)Cn1ncc2cc(Cl)cc(Cn3nc(N)c4cc(C(=O)O)ccc43)c21` [Compound 68, 3-Amino-1-[(5-chloro-1-isobutyl-indazol-7-yl)methyl]indazole-5-carboxylic acid] the Kb was 1300 nM.
Work on `CC(C)Cn1ncc2cc(Cl)cc(Cn3ncc4cc(C(=O)O)ccc43)c21` [Compound 41, 1-(5-Chloro-1-isobutyl-1H-indazol-7-ylmethyl)-1H-indazole-5-carboxylic acid] yielded a Kb of 40 nM.
`CC(C)Cn1ncc2cc(Cl)cc(Cn3cnc4cc(C(=O)O)cnc43)c21` [Compound 51, 3-(5-Chloro-1-isobutyl-1H-indazol-7-ylmethyl)-3H-imidazo[4,5-b]pyridine-6-carboxylic acid] was tested, and the Kb was 280 nM.
For `CC(C)Cn1ncc2cc(C(F)(F)F)cc(Cn3cnc4cc(C(=O)O)ccc43)c21` [Compound 55, 1-(1-Isobutyl-5-trifluoromethyl-1H-indazol-7-ylmethyl)-1H-benzoimidazole-5-carboxylic acid], the “FLIPR data TP (Kb)” value was “Ag”.
In the case of `CC(C)n1ncc2cc(Br)cc(Cn3ncc4cc(C(=O)O)ccc43)c21` [Compound 46, 1-(5-Bromo-1-isopropyl-1H-indazol-7-ylmethyl)-1H-indazole-5-carboxylic acid], the Kb is reported as 1400 nM.
Compound `CC(C)Cn1ncc2cc(Cl)cc(Cn3ccc4cc(C(=O)O)cnc43)c21` [Compound 52, 1-(5-Chloro-1-isobutyl-1H-indazol-7-ylmethyl)-1H-pyrrolo[2,3-b]pyridine-5-carboxylic acid] has a Kb of 20 nM.
`CC(C)Cn1ncc2cc(F)cc(Cn3ncc4cc(C(=O)O)ccc43)c21` [Compound 43, 1-(5-Fluoro-1-isobutyl-1H-indazol-7-ylmethyl)-1H-indazole-5-carboxylic acid] gave a Kb of 450 nM.
`CC(C)Cn1ncc2cc(Cl)cc(Cn3cnc4cc(C(=O)O)ccc43)c21` [Compound 50, 1-(5-Chloro-1-isobutyl-1H-indazol-7-ylmethyl)-1H-benzoimidazole-5-carboxylic acid] was tested, and the Kb was 5000 nM.
In the case of `CC(C)Cn1ncc2cc(C(F)(F)F)cc(Cn3ncc4cc(C(=O)O)ccc43)c21` [Compound 44, 1-(1-Isobutyl-5-trifluoromethyl-1H-indazol-7-ylmethyl)-1H-indazole-5-carboxylic acid], the “FLIPR data TP (Kb)” value is reported as “Ag”.
`CC(C)Cn1ncc2cc(Br)cc(Cn3ncc4cc(C(=O)O)ccc43)c21` [Compound 42, 1-(5-Bromo-1-isobutyl-1H-indazol-7-ylmethyl)-1H-indazole-5-carboxylic acid] was tested, and the Kb was 160 nM.
For `CCC(CC)Cn1ncc2cc(Br)cc(Cn3ncc4cc(C(=O)O)ccc43)c21` [Compound 47, 1-[5-Bromo-1-(2-ethyl-butyl)-1H-indazol-7-ylmethyl]-1H-indazole-5-carboxylic acid], the Kb was 700 nM.
In the case of `CC(C)Cn1ncc2cc(OC(F)(F)F)cc(Cn3ncc4cc(C(=O)O)ccc43)c21` [Compound 45, 1-(1-Isobutyl-5-trifluoromethoxy-1H-indazol-7-ylmethyl)-1H-indazole-5-carboxylic acid], the “FLIPR data TP (Kb)” value is reported as “Ag”.
For `Cc1nn(Cc2cc(Br)cc3cnn(CC(C)C)c23)c2ncc(C(=O)O)cc12` [Compound 54, 1-(5-Bromo-1-isobutyl-1H-indazol-7-ylmethyl)-3-methyl-1H-pyrazolo[3,4-b]pyridine-5-carboxylic HCl salt], the Kb was 1600 nM.
In the case of `CC(C)Cn1ncc2cc(Cl)cc(Cn3ncc4cc(C(=O)O)cnc43)c21` [Compound 49, 1-(5-Chloro-1-isobutyl-1H-indazol-7-ylmethyl)-1H-pyrazolo[3,4-b]pyridine-5-carboxylic acid], the Kb is reported as 170 nM.
`CNc1nn(Cc2cc(Cl)cc3cnn(CC(C)C)c23)c2ccc(C(=O)O)cc12` [Compound 70, 1-[(5-Chloro-1-isobutyl-indazol-7-yl)methyl]-3-(methylamino)indazole-5-carboxylic acid] showed a Kb of 300 nM.
For `CC(C)Cn1ncc2cc(Cl)cc(Cc3ncc4cc(C(=O)O)ccn34)c21` [Compound 61, 3-[(5-Chloro-1-isobutyl-indazol-7-yl)methyl]imidazo[1,5-a]pyridine-7-carboxylic acid], the Kb was > 10000 nM.
Work on `Cc1nn(Cc2cc(Br)cc3cnn(CC(C)C)c23)c2ccc(C(=O)O)cc12` [Compound 53, 1-(5-Bromo-1-isobutyl-1H-indazol-7-ylmethyl)-3-methyl-1H-indazole-5-carboxylic acid] yielded a Kb of 1000 nM.
`CC(C)Cn1ncc2cc(OC(F)(F)F)cc(Cn3cnc4cc(C(=O)O)ccc43)c21` [Compound 56, 1-(1-Isobutyl-5-trifluoromethoxy-1H-indazol-7-ylmethyl)-1H-benzoimidazole-5-carboxylic acid] was tested, and the Kb was 30 nM.
For `CCCn1ncc2cc(Cl)cc(Cn3ncc4cc(C(=O)O)ccc43)c21` [Compound 48], the Kb was 740 nM.
